# Entries after “also recorded” stand apart in the source; their conditions may differ. Marks after values point to notes of the source that are not given here.
# Experiments:
# Type in all cases: cell-based, Mycobacterium avium subsp hominissuis 104 (MAH104)
# sessile MAH104 cells = assay: Growth and biofilm formation of pre-attached (sessile) cells in nutrient-limited media; conditions: for O.D.570 nm of sessile MAH104 (crystal violet, biofilm formation): 0.05% fatty acids in non-supplemented 7H9, 7 days, blank 0.091±0.007; for growth of sessile forms: 0.2% glycerol or 0.05% fatty acids in non-supplemented 7H9, 7 days at 37° C., O.D.595 nm
# Procedure: (§1) Assays with biofilms incubated with propionic acid, butyric acid, and glycerol were performed to test whether these metabolites affect the formation of biofilms. All the experiments were made in non-supplemented 7H9. The effect of these metabolites was evaluated during biofilm formation, in pre-established biofilms and in M. avium cells pre-attached to polystyrene. To evaluate the effect of targeted metabolites during biofilm formation, mycobacteria suspensions were prepared and inoculated in 96 wells polystyrene plates, as already described, and biofilms were formed in the presence or not of the short-chain fatty acids at different concentrations (1%, 0.5%, 0.1%, 0.05% and 0.01%). For glycerol, only 0.2% was used. The biofilms were formed in 7H9 media at 37° C. for 7 days. For pre-established biofilms, MAH104 was again inoculated in 96 wells plates and biofilms were formed as described herein. […] It was also evaluated whether these metabolites could promote the growth of MAH104 cells present in biofilms through the measurement of […] every 24 hours. Finally, mycobacteria suspension with low density made in 7H9 broth (containing 1×10^6 bacteria/ml) were seeded in 96 wells polystyrene plates and incubated for 7 days at 37° C. […] The growth of pre-attached bacterial cells was followed every 24 hours through O.D.595 nm. The biofilm formation was evaluated by crystal violet.
# Low mycobacterial cells density (10^6/ml) resuspended in non-supplemented 7H9 media were inoculated in 96-well plates and incubated for 7 days at 37° C. to allow the bacteria to attach into polystyrene. The supernatant was discarded to remove planktonic cells and pre-attached bacterium was incubated for 7 days in nutrient-limited media (non-supplemented 7H9). […] The growth of sessile mycobacteria was followed by O.D.595 nm measurement and biofilm formation was determined through crystal violet (O.D.570 nm), since the multiplication of bacteria cells is linked with the formation of biofilms. No growth was observed when sessile MAH104 cells were cultivated in non-supplemented 7H9 broth. […] It is also important to highlight that the O.D.570 nm value for sessile MAH104 forms incubated with non-supplemented 7H9 (O.D.570 nm=0.11±0.039) had no significant difference in comparison with the blank (O.D.570 nm=0.091±0.007) (P=0.37), showing no biofilm formation. […] FIG. 3A-D.
# [1] = tested on: M. avium 104 static biofilms; assay: Static biofilm formation in the presence of metabolites (crystal violet); conditions: for biofilm formation with 1% and 0.5% of fatty acid: 7H9, 7 days at 37° C., crystal violet
# Procedure: Static biofilms were used in the present study as described previously (Rose S J, Bermudez L E., Infection and Immunity 2014; 82:405-12). Briefly, mycobacteria were taken from 7H10 agar plates and resuspended in deionized water (10^9 of colony forming units/ml; CFU/ml). The bacterial suspension was then washed 3 times with deionized water to remove any remaining of 7H10 media (3500 rpm for 20 minutes at 20° C.). After washing, the MAH104 were resuspended in 7H9 medium without any carbon sources (OADC, glycerol, tween 20 and tween 80) (non-supplemented 7H9) and suspensions were left alone to allow clumped bacteria to settle. The top half of the suspension was transferred to new tube and adjusted to 1×10^8 CFU/ml, using visual turbidity and optical density. Suspensions were inoculated in 96-well polystyrene plates (BD, Franklin Lakes, N.J.) (100 μl for each well [or 10^7 bacteria per well]) and biofilms were formed at 37° C. for 7 days or for 14 days when indicated. […] The raw O.D. at 570 nm values were discounted from O.D. 570 nm average of blank wells (wells with only 7H9 media).
# as §1
# The next step was to evaluate the capacity of tested substrates to promote the growth of mycobacteria cells that are present in biofilms. […] MAH 104 cells in the presence of non-supplemented 7H9 were used as a negative control. […]
# [2] = tested on: pre-established MAH104 biofilms; assay: Effect of metabolites on pre-established biofilms; conditions: for O.D.570 nm of pre-established biofilms (biofilm formation): 7 days at 37° C. with metabolite, 7H9 0.332±0.073
# Procedure: as §1
# Next, the effect of short-chain fatty acids and glycerol in pre-established biofilms was tested. In parallel, the O.D.595 nm of pre-established biofilm cultures were also measured for 7 days in order to check whether the bacterial cells in biofilm multiplied in the presence of the targeted substrates. […] In addition, we observed a significant increase in the biofilm formation (O.D.570 nm values) when mycobacteria biofilm was incubated with glycerol (7H9, O.D.570 nm=0.332±0.073; glycerol, O.D.570 nm=1.562±0.1751; P=0.0029).
# [3] = tested on: MAH (strain 104) in established biofilms; assay: Treatment of established MAH biofilms with antibiotics and metabolites (CFU); conditions: for killing capacity of clarithromycin: established M. avium 104 biofilms, 72 hours, FIG. 4A-D; for CFU/ml at 14 days: established biofilms, clarithromycin 16 μg/ml, amikacin 4 μg/ml, 0.05% propionic or butyric acid, 0.2% glycerol, none 4.2 +/− 0.5 × 10^8
# Procedure: To assess the antibiotic tolerance of MAH biofilms to amikacin (4 μg/ml) and clarithromycin (16 μg/ml), biofilms were formed for 14 days as described herein. […] As a negative control, biofilms were incubated only with non-supplemented 7H9 without any antibiotics. […] Subsequently, 100 μl of 0.02% of Triton X-100 (final concentration 0.01%) was added to the established biofilms to mix, dilute and perform CFU analysis with the entire population of biofilms (attached and unattached).
# Mycobacteria biofilms were first established and then treated or not treated with antibiotics. In parallel, biofilms were also co-treated with antibiotics and the targeted metabolites.
# [4] = tested on: intracellular MAH 104 in THP-1 macrophages; assay: Treatment of MAH inside human THP-1 macrophages with antibiotics and metabolites (CFU); conditions: for CFU/ml of macrophage lysate, 2 h: 2 h (baseline); for CFU/ml of macrophage lysate, 4 days: clarithromycin 16 μg/ml, amikacin 4 μg/ml, none 8.2 +/− 0.3 × 10^5
# Procedure: Human THP-1 cell line (TIB-202) (American Type Culture Collection, Manassas, Va.) was cultivated in RPMI-1640 medium with 10% of heat-inactivated fetal bovine serum (FBS, GEMINI B10-PRODUCTS, Sacramento, Calif.), at 37° C. with 5% CO2. The THP-1 cells were maintained in 75 cm^2 tissue culture flasks. The differentiation of THP-1 monocytes into macrophages with PMA (phorbol 12-myristate 13-acetate) (SIGMA ALDRICH) and intracellular antibiotic killing assays were performed as previously described (Rojony et al., Clinical proteomics 2019; 16:39). […] As a negative control, differentiated THP-1 cells were incubated without any antibiotics and with no metabolites. THP-1 cells were replenished with new media containing antibiotics, or no antibiotic, every other day. Cells were lysed at 2 h (baseline) and day 4 and subsequently the number of viable bacteria was determined by CFU counting on 7H10 agar plates.
SMILES,"O.D.570 nm of sessile MAH104 (crystal violet, biofilm formation) (sessile MAH104 cells)",growth of sessile forms (sessile MAH104 cells),biofilm formation with 1% and 0.5% of fatty acid [1],O.D.570 nm of pre-established biofilms (biofilm formation) [2],killing capacity of clarithromycin [3],CFU/ml at 14 days [3],"CFU/ml of macrophage lysate, 2 h [4]","CFU/ml of macrophage lysate, 4 days [4]","increase in biofilm formation in comparison with non-supplemented 7H9 ([1]; glycerol 0.2%, 7 days)","O.D.595 nm of pre-established biofilm cultures ([2]; after 24 hours of culture, 7H9 media 0.452±0.049)",bacterial killing by clarithromycin and amikacin in macrophages after co-treatment ([4]; THP1 macrophages)
CCCC(=O)O [Butyric acid],0.32±0.02,supported the growth of sessile forms,same results; also recorded: significant decrease,0.490±0.121,increase,3.4 +/− 0.6 × 10^6* (1) CFU/ml,2.0 +/− 0.4 × 10^5 CFU/ml,8.4 +/− 0.5 × 10^5 CFU/ml,,,
OCC(O)CO [Glycerol],,supported the growth of sessile forms,,1.562±0.1751,increase,1.1 +/− 0.3 × 10^9* CFU/ml,3.1 +/− 0.4 × 10^5 CFU/ml,2.0 +/− 0.5 × 10^5* (1) CFU/ml,3.2 ×,0.609±0.069,
CCC(=O)O [Propionic acid],0.25±0.01,supported the growth of sessile forms,unable to form biofilm; also recorded: significant decrease,0.3855±0.048,increase,5.5 +/− 0.4 × 10^6*(1) CFU/ml,2.0 +/− 0.4 × 10^5 CFU/ml,8.0 +/− 0.2 × 10^5 CFU/ml,,,increased significantly
